Experimental findings from patent US4250183A, “N-(Substituted amino)alkanoyl-aminoalkanoic acids and salts, their use and their compositions” (BYK Gulden Lomberg Chemische Fabrik GmbH, priority 1977, dated 1981) are described below.

Data set [1] in a line: in vivo. To be noted: mouse, ip.
Description: (§7) The animals (5 animals per dose) are given food and water ad lib. Different dosages of the substances are administered intraperitoneally. The duration of observation is 14 days.
For data set [2], the system named is pancreatic secretion. Kind of data set: Influence on the pancreatic secretion of the narcotized rat after intraduodenal application. The class given is in vivo, rat (male Sprague-Dawley). The following applies: Rattus norvegicus, 0.5 h, read-out: Pancreatic Secretion ED50 (dose which brings about an increase in the pancreatic secretion by a maximum of 50%). The source says: (§1) Influence on the Pancreatic and Bile Secretion of the Narcotized Rat Carrying out the Test
(§2) Male Sprague-Dawley rats (250 to 300 g body weight) are narcotized with 1.2 g/kg urethane i.m. Then the abdominal cavity is opened medially, the Ductus choledochus ligatured shortly above its entry into the duodenum and also near the liver joint, and both sections are catheterized towards the liver.
(§3) As in the case of the rat all pancreatic ducts lead into the center section of the Ductus choledochus; it is thus possible in this way to derive separately the pancreatic secreta from the distal (ligatured) section and the bile from the proximal section of the Ductus choledochus.
(§4) The separated quantities of pancreatic juice and bile juice are measured at intervals of 30 minutes during the period from before 2 hours to 3 hours after the intraduodenal […] administration of the compounds to be tested (volume of liquid administered 5 ml/kg).
(§5) The body temperature of the animals is maintained at from 36° to 38° C. by means of electric blankets and radiation; the monitoring of the temperature is carried out rectally.
(§6) The liquid volumes of the 30-minute fractions after the administration of the product are related in each case to the quantity of bile or pancreatic juice secreted prior to the application of the substance (=100%, mean of the two last measurements). The maximum percentage increase of the pancreatic or bile secretion is plotted against the dose and, from this, the ED50 is determined by interpolation.

Test in data set [3]: as above
The class given is in vivo, rat (male Sprague-Dawley). The following applies: in vivo; Table I; LD50 mouse i.p. / ED50 pancreatic secretion rat i.d.; read-out: TQ (LD50/ED50), pancreatic secretion.
Description: as §1, §2, §3, §4, §5, §6

Data set [4] deals with bile secretion. Kind of data set: Influence on the bile secretion (choleresis) of the narcotized rat after intraduodenal application. The following applies: Rattus norvegicus, 0.5 h, read-out: Bile Secretion ED50 (dose which brings about an increase in the bile secretion by a maximum of 50%). Type of data set: in vivo, rat (male Sprague-Dawley).
Description: as §1, §2, §3, §4, §5, §6

Test in data set [5]: as above
Type of data set: in vivo, rat (male Sprague-Dawley). To be noted: in vivo; Table II; LD50 mouse i.p. / ED50 bile secretion rat i.d.; read-out: TQ (LD50/ED50), bile secretion.
Description: as §1, §2, §3, §4, §5, §6

Data set [6] concerns female NMRI mice. Description: Determination of the toxicity, lethal effect on the mouse after intraperitoneal application.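 Note: mice received several intraperitoneal dose levels, five animals per level, and were followed for 14 days to estimate the lethal dose for half the animals.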 The following applies: Table II, i.p., 14 days observation.
Description: as §7

In the case of `COc1ccc(N(CCCC(=O)O)C(=O)CN(C(=O)c2ccc(Cl)cc2)c2ccc(OC)cc2)cc1` [Serial No. 9, N-[N-(p-chlorobenzoyl)-2-(p-anisidino)acetyl]-4-(p-anisidino)butyric acid], in data set [1], the LD50 at 336 h is 420 mg/kg. Moreover, the ED50 in data set [2] was 3 mg/kg. Moreover, in data set [3], the selectivity ratio amounted to 140.

For `Cc1cccc(C)c1N(CCCC(=O)NCCCC(=O)O)C(=O)c1ccc(Cl)cc1` [Serial No. 14, N-[N-(p-chlorobenzoyl)-4-(2,6-dimethylanilino)butyryl]-4-aminobutyric acid], in data set [1], the LD50 at 336 h was found to be 400 mg/kg. Also, in data set [2], the median effective dose (ED50) is 0.4 mg/kg. Besides, in data set [3], the selectivity ratio turned out to be 1000.

For `COc1ccc(N(CCCC(=O)O)C(=O)C(C)N(C(=O)c2ccco2)c2ccc(OC)cc2)cc1` (centres unmarked) [Serial No. 17, N-[N-(2-furoyl)-2-(p-anisidino)propionyl]-4-(p-anisidino)butyric acid], the LD50 at 336 h in data set [1] was 750 mg/kg. In addition, the median effective dose (ED50) in data set [4] is 11 mg/kg; in data set [2] it was 5 mg/kg. In addition, the values for the selectivity ratio in data set [5] and in data set [3] were 68 and 150, respectively.

`COc1ccc(N(CCCC(=O)O)C(=O)CCN(C(=O)c2ccc(Cl)cc2)c2ccc(OC)cc2)cc1` [Serial No. 10, N-[N-(p-chlorobenzoyl)-3-(p-anisidino)propionyl]-4-(p-anisidino)butyric acid]: the LD50 at 336 h in data set [1] was 220 mg/kg. Also, in data set [2], the median effective dose (ED50) is approximately 1 mg/kg. Also, the selectivity ratio in data set [3] is approximately 220.

In data set [1], `COc1ccc(N(CCCC(=O)O)C(=O)CCCN(C(=O)c2ccc(Cl)cc2)c2c(C)cccc2C)cc1` [Serial No. 13, N-[N-(p-chlorobenzoyl)-4-(2,6-dimethylanilino)butyryl]-4-(p-anisidino)butyric acid] had an LD50 at 336 h of 150 mg/kg. For the same compound, the ED50 in data set [2] is 0.8 mg/kg. The selectivity ratio in data set [3] is 188.

In data set [1], `COc1ccc(N(CCCC(=O)O)C(=O)CCN(C(C)=O)c2c(C)cccc2C)cc1` [Serial No. 20, N-[N-acetyl-3-(2,6-dimethylanilino)propionyl]-4-(p-anisidino)butyric acid] displayed a 50% lethal dose (LD50) at 336 h of 600 mg/kg. The ED50 in data set [4] and in data set [2] was 7 mg/kg in each case. Further, the selectivity ratio in data set [5] and in data set [3] was 86 each time.

With `Cc1cccc(C)c1N(CC(=O)NCCC(=O)O)C(=O)c1ccc(Cl)cc1` [Serial No. 7, N-[N-(p-chlorobenzoyl)-2-(2,6-dimethylanilino)acetyl]-3-aminopropionic acid], the median lethal dose (LD50) at 336 h in data set [1] is 450 mg/kg. Moreover, the results for the median effective dose (ED50) in data set [4] and in data set [2] were 10 mg/kg and not above 1 mg/kg, respectively. In addition, the values for the selectivity ratio in data set [5] and in data set [3] were 45 and not below 450, respectively.

In data set [1], `COc1ccc(N(CC(=O)N(C)CC(=O)O)C(=O)c2ccc(Cl)cc2)cc1` [Serial No. 3, N-[N-(p-chlorobenzoyl)-2-(p-anisidino)acetyl]sarcosine] had an LD50 at 336 h of more than 1000 mg/kg. Further, the ED50 in data set [2] came out at 15 mg/kg. The selectivity ratio in data set [3] is more than 67.

On to `Cc1cccc(C)c1N(CCCC(=O)O)C(=O)CCCN(C(=O)c1ccc(Cl)cc1)c1c(C)cccc1C` [Serial No. 11, N-[N-(p-chlorobenzoyl)-4-(2,6-dimethylanilino)butyryl]-4-(2,6-dimethylanilino)butyric acid], for which the LD50 at 336 h in data set [1] is 130 mg/kg. Also, the median effective dose (ED50) in data set [4] came to 3 mg/kg; in data set [2], 1 mg/kg. Further, the selectivity ratio was 43 in data set [5] and 130 in data set [3].

In data set [1], `CCc1cccc(C)c1N(CCCC(=O)O)C(=O)CCN(C(C)=O)c1c(C)cccc1C` [Serial No. 22, N-[N-acetyl-3-(2,6-dimethylanilino)propionyl]-4-(2-ethyl-6-methylanilino)butyric acid] showed an LD50 at 336 h of 430 mg/kg. Moreover, the median effective dose (ED50) in data set [4] was 1.3 mg/kg; in data set [2], 3 mg/kg. For the same compound, the selectivity ratio in data set [5] amounted to 331; in data set [3] it was 143.

In turn, `COc1ccc(N(CCCC(=O)O)C(=O)[C@H](CCSC)NC(=O)c2ccc(Cl)cc2)cc1` [Serial No. 23, N-[N-(p-chlorobenzoyl)methionyl]-4-(p-anisidino)butyric acid] had an LD50 at 336 h in data set [1] of 700 mg/kg. Further, the ED50 in data set [4] was 2.5 mg/kg. Moreover, the selectivity ratio in data set [5] came out at 280.

On to `Cc1cccc(C)c1N(CC(=O)NCC(=O)O)C(=O)c1ccc(Cl)cc1` [Serial No. 6, N-[N-(p-chlorobenzoyl)-2-(2,6-dimethylanilino)acetyl]glycine], for which the LD50 at 336 h in data set [1] was found to be 400 mg/kg. In addition, the ED50 in data set [2] was approximately 5 mg/kg. In data set [3], the selectivity ratio was approximately 80.

With `COc1ccc(N(CCCC(=O)O)C(=O)C(C)N(C(=O)c2ccc(Cl)cc2)c2ccc(OC)cc2)cc1` (centres unmarked) [Serial No. 18, N-[N-(p-chlorobenzoyl)-2-(p-anisidino)propionyl]-4-(p-anisidino)butyric acid], the LD50 at 336 h in data set [1] was not above 250 mg/kg. For the same compound, the “Toxicity LD50” value in data set [6] was not above 250 mg/kg. In addition, the results for the 50% effective dose (ED50) in data set [4] and in data set [2] were 7 mg/kg and 5 mg/kg, respectively. The selectivity ratio in data set [5] is not above 36; in data set [3] it was not above 50.

With `COc1ccc(N(CC(=O)N(CCCC(=O)O)c2ccc(OC)cc2)C(C)=O)cc1` [Serial No. 8, N-[N-acetyl-2-(p-anisidino)acetyl]-4-(p-anisidino)butyric acid], the 50% lethal dose (LD50) at 336 h in data set [1] is 1200 mg/kg. In data set [2], the median effective dose (ED50) was found to be 1 mg/kg. Besides, the selectivity ratio in data set [3] turned out to be 1200.

As to `COc1ccc(N(CCCC(=O)O)C(=O)CCN(C(=O)c2ccc(Cl)cc2)c2c(C)cccc2C)cc1` [Serial No. 25, N-[N-(p-chlorobenzoyl)-3-(2,6-dimethylanilino)propionyl]-4-(p-anisidino)butyric acid], the LD50 at 336 h in data set [1] was found to be 60 mg/kg. The 50% effective dose (ED50) in data set [4] is approximately 1 mg/kg. Moreover, in data set [5], the selectivity ratio was approximately 60.

Regarding `COc1ccc(N(CCCC(=O)N(CCCC(=O)O)c2c(C)cccc2C)C(=O)c2ccc(Cl)cc2)cc1` [Serial No. 12, N-[N-(p-chlorobenzoyl)-4-(p-anisidino)butyryl]-4-(2,6-dimethylanilino)butyric acid], the LD50 at 336 h in data set [1] was 800 mg/kg. For the same compound, the ED50 in data set [4] worked out at 14 mg/kg; in data set [2] it was 2 mg/kg. Besides, the selectivity ratio in data set [5] was 57; in data set [3], 400.

In data set [1], `Cc1cccc(C)c1N(CCCC(=O)N(C)CC(=O)O)C(=O)c1ccc(Cl)cc1` [Serial No. 2, N-[N-(p-chlorobenzoyl)-4-(2,6-dimethylanilino)butyryl]sarcosine] showed an LD50 at 336 h of 700 mg/kg. Besides, the ED50 in data set [2] came to 10 mg/kg. Further, the selectivity ratio in data set [3] stood at 70.

Take `COc1ccc(N(CC(=O)NCC(=O)O)C(=O)c2ccc(Cl)cc2)cc1` [Serial No. 4, N-[N-(p-chlorobenzoyl)-2-(p-anisidino)acetyl]glycine]: the LD50 at 336 h in data set [1] was more than 1000 mg/kg. Also, the ED50 in data set [2] came out at 15 mg/kg. The selectivity ratio in data set [3] was more than 67.

`CCc1cccc(CC)c1N(CCCC(=O)O)C(=O)CCN(C(C)=O)c1c(C)cccc1C` [Serial No. 21, N-[N-acetyl-3-(2,6-dimethylanilino)propionyl]-4-(2,6-diethylanilino)butyric acid] showed a 50% lethal dose (LD50) at 336 h in data set [1] of 280 mg/kg. Moreover, the ED50 in data set [4] is approximately 1 mg/kg. Besides, the selectivity ratio in data set [5] is approximately 280.

Compound `COc1ccc(C(=O)N[C@@H](Cc2ccccc2)C(=O)N(CCCC(=O)O)c2ccc(OC)cc2)cc1` [Serial No. 24, N-[N-(p-methoxybenzoyl)phenylalanyl]-4-(p-anisidino)butyric acid] had an LD50 at 336 h in data set [1] of 300 mg/kg. The ED50 in data set [4] and in data set [2] was 6 mg/kg each time. Moreover, the selectivity ratio in data set [5] and in data set [3] was 50 each time.

In data set [1], `COc1ccc(N(CC(=O)NCCC(=O)O)C(=O)c2ccc(Cl)cc2)cc1` [Serial No. 5, N-[N-(p-chlorobenzoyl)-2-(p-anisidino)acetyl]-3-aminopropionic acid] had an LD50 at 336 h of 1300 mg/kg. Also, the median effective dose (ED50) in data set [2] stood at 25 mg/kg. Also, the selectivity ratio in data set [3] came out at 52.

`COc1ccc(N(CCCC(=O)O)C(=O)C(C)N(C(C)=O)c2ccc(OC)cc2)cc1` (centres unmarked) [Serial No. 16, N-[N-acetyl-2-(p-anisidino)propionyl]-4-(p-anisidino)butyric acid]: the 50% lethal dose (LD50) at 336 h in data set [1] turned out to be 600 mg/kg. Besides, in data set [4], the ED50 was 10 mg/kg. Also, in data set [5], the selectivity ratio came out at 60.

As for `COc1cc(C(=O)N(CCCC(=O)NCCCC(=O)O)c2c(C)cccc2C)cc(OC)c1OC` [Serial No. 15, N-[N-(3,4,5-trimethoxybenzoyl)-4-(2,6-dimethylanilino)butyryl]-4-aminobutyric acid], the LD50 at 336 h in data set [1] came out at 800 mg/kg. Also, in data set [2], the ED50 is approximately 1 mg/kg. Also, the selectivity ratio in data set [3] was approximately 800.
